Experimental data from patent US9452154B2, “Methods for treating HCV” (Gilead Sciences, Inc., priority 2010, dated 2016).
Where two headings read alike, the source gives them in different places.

Columns and labels:
HCV genotype 1a replicon [1] = assay: Biological Example 3: HCV genotype 1a replicon assay, EC50; assay type: cell-based; details: Hepatitis C virus, 72 h, 3 days, read-out: EC50
Method: The HCV genotype 1a replicon cell line used in this study was described previously. The cells were grown in cell culture medium containing Dulbecco's Modified Eagle Medium (DMEM) with GlutaMAX (Gibco, Carlsbad, Calif., Cat#10569-044), supplemented with 10% FBS (HyClone, Logan, Utah, Cat#SH30071.03), 100 Units/mL Penicillin, 100 μg/mL Streptomycin (Gibco, Carlsbad, Calif., Cat#15140-122), and 0.1 mM non-essential amino acids (Gibco, Carlsbad, Calif., Cat#11140-050). Replicon cells were maintained in 0.5 mg/mL Geneticin (Invitrogen, Carlsbad, Calif., Cat#10131-035) to prevent the loss of HCV replicon. The cells were passaged every 3-4 days before reaching confluency.
(§1) [formula] where XC is the fluorescence signal from the compound-treated well; MB is the average fluorescence signal from puromycin-treated wells; MD is the average fluorescence signal from DMSO-treated wells. The anti-HCV replication activity was determined by the luminescence signal generated from the reporter renilla luciferase of the HCV replicon. The percent inhibition on HCV replicon was calculated using equation 1, where XC is the luminescence signal from compound-treated well; MB is average luminescence signal from the ITMN-191-treated wells; MD is the average luminescence signal from DMSO-treated wells.
(§2) Both CC50 and EC50 values were obtained using Pipeline Pilot 5.0 software package (Accelrys, San Diego, Calif.) by nonlinear regression fitting of experimental data to equation 2: […]

[2] = Biological Example 3: cytotoxicity (calcein AM), CC50; assay type: cell-based; details: human, Huh-7 cells carrying a HCV genotype 1a replicon; HCV genotype 1a replicon cells; calcein AM
Method: The HCV replicon assay was a multiplex assay which can assess both cytotoxicity and anti-replicon activity from the same well. The CC50 assay was performed first.
The cytotoxicity effect was determined by calcein AM conversion to fluorescent product. The percent cytotoxicity was calculated by equation 1:
as §1, §2

GT-1b Huh-lunet cells = assay: Biological Example 4: antiviral combination studies with Compound 5 (MacSynergy II); assay type: cell-based, HCV; details: in combination with Compound 5, 1b replicon cells
HCV 1b replicon system = assay: Biological Example 5: antiviral combination studies with Compound 6 (MacSynergy II); assay type: cell-based; details: in combination with Compound 6
[3] = tested on: Huh-7 cells carrying a HCV genotype 1a replicon; assay: Biological Example 3: cytotoxicity in combination studies (MacSynergy II); details: in combination with Compound 4
HCV genotype 1a replicon [4] = assay: Biological Example 3: antiviral combination studies with Compound 4 (MacSynergy II); details: in combination with Compound 4
[5] = tested on: NS3 GT1a mutant replicons; assay type: cell-based, HCV
Method: (§3) GT1b and GT1a replicons carrying Renilla Luciferase reporter were used to generate the mutant replicons. The mutations were introduced into the replicon construct by site-directed mutagenesis and confirmed by sequencing. Mutant replicon RNAs were generated from DNA by in vitro transcription and transfected into Huh-7 Lunet or C1 cells
(§4) Compounds were serially diluted 1:3 in 100% DMSO (Sigma). These serial dilutions were added to the cells at a 1:200 dilution to achieve a final concentration of 0.5% DMSO in a total volume of 200 μL. […] EC50 values were calculated using Prism.
(§5) For comparison, a fold change of 0-3 is considered “sensitive”, a fold change of 3-10 is considered “low”, a fold change of 10-50 is considered “medium” and a fold change of greater than […] is considered “high”.

[6] = tested on: NS3 GT1b mutant replicons; assay type: cell-based, HCV
Method: as §3, §4, §5

[7] = tested on: GT1b and GT1a mutant replicons; assay: Biological Example 8: summary of cross resistance of mutant replicons; assay type: cell-based, HCV; details: triple class mutants that confer resistance to PI, NS5A and Compound 1
Method: as §3, §4, §5

With `COc1ccc2c(O[C@@H]3C[C@H]4C(=O)N[C@]5(P(=O)(O)Cc6c(F)cccc6F)C[C@H]5CCCCCCC[C@H](NC(=O)OC5CCCC5)C(=O)N4C3)cc(-c3csc(NC(C)C)n3)nc2c1Cl` [Compound 2, (2R,6S,13aR,14aS,16aS)-2-(8-chloro-2-(2-(isopropylamino)thiazol-4-yl)-7-methoxyquinolin-4-yloxy)-6-(cyclopentyloxycarbonylamino)-5,16-dioxooctadecahydrocyclopropa[e]pyrrolo[1,2-a][1,4]diazacyclopentadecin-14a-yl(2,6-difluorobenzyl)phosphinic acid] as the compound, how does the EC50 (HCV genotype 1a replicon [1]) read?
The EC50 was 496 ± 135 nM.

And the CC50 at 3 days [2]?
The CC50 at 3 days was over 22200 nM.

And the Interaction (GT-1b Huh-lunet cells)?
Its Interaction is “Additive”.

What about the “Synergy Volume” value (GT-1b Huh-lunet cells) of the same compound?
The value was 22 ± 12 nM^2.

What about the Interaction (HCV 1b replicon system) of the same compound?
The Interaction was “Moderate Synergy”.

And the “Antagonism Volume (cytotoxicity)” value [3]?
The value was 0 ± 0 nM^2%.

What about the “Interaction (cytotoxicity)” value [3] of the same compound?
Its value is “Additivity (Additivity: ≦25 and >−25 nM^2%)”.

And the “Synergy Volume (cytotoxicity)” value [3]?
Its value is 17 ± 14 nM^2%.

What about the “Antagonism Volume” value (HCV genotype 1a replicon [4]) of the same compound?
The value was −2 ± 3 nM^2%.

And the Interaction (HCV genotype 1a replicon [4])?
Its Interaction is “Additivity (Additivity: ≦25 and >−25 nM^2%)”.

And the “Synergy Volume” value (HCV genotype 1a replicon [4])?
The value was 22 ± 14 nM^2%.

Which EC50 (HCV genotype 1a replicon [1]) does the source give for `CC1=CC[C@H](C(=O)N(c2cc(C#CC(C)(C)C)sc2C(=O)O)[C@H]2CC[C@](O)(CO[C@H]3CCOC3)CC2)CC1` [Compound 5, 5-(3,3-dimethylbut-1-yn-1-yl)-3-[(cis-4-hydroxy-4-{[(3S)-tetrahydrofuran-3-yloxy]methyl}cyclohexyl){[(1R)-4-methylcyclohex-3-en-1-yl]carbonyl}amino]thiophene-2-carboxylic acid] here?
Its EC50 is 15 ± 2.4 nM.

What about the CC50 at 3 days [2] of the same compound?
The CC50 at 3 days was over 44400 nM.

And the “fold change in EC50 vs wild-type GT1a” value ([5]; mutant A156T)?
Its value is 0.4 fold.

And the “fold change in EC50 vs wild-type GT1a” value ([5]; mutant D168A)?
The value was 1.1 fold.

What about the “fold change in EC50 vs wild-type GT1a” value ([5]; mutant D168E) of the same compound?
The value was 0.7 fold.

And the “fold change in EC50 vs wild-type GT1a” value ([5]; mutant D168G)?
Its value is 1.0 fold.

What about the “fold change in EC50 vs wild-type GT1a” value ([5]; mutant D168H) of the same compound?
Its value is 1.1 fold.

And the “fold change in EC50 vs wild-type GT1a” value ([5]; mutant D168N)?
Its value is 1.3 fold.

What about the “fold change in EC50 vs wild-type GT1a” value ([5]; mutant D168V) of the same compound?
Its value is 1.1 fold.

And the “fold change in EC50 vs wild-type GT1a” value ([5]; mutant D168Y)?
Its value is 0.7 fold.

And the “fold change in EC50 vs wild-type GT1a” value ([5]; mutant R155I)?
Its value is 0.7 fold.

And the “fold change in EC50 vs wild-type GT1a” value ([5]; mutant R155K)?
The value was 0.8 fold.

What about the “fold change in EC50 vs wild-type GT1a” value ([5]; mutant R155K + L31M) of the same compound?
The value was 0.4 fold.

And the “fold change in EC50 vs wild-type GT1a” value ([5]; mutant R155K + L31M + Y448H)?
Its value is 0.3 fold.

What about the “fold change in EC50 vs wild-type GT1a” value ([5]; mutant R155K + M28T) of the same compound?
Its value is 0.8 fold.

And the “fold change in EC50 vs wild-type GT1a” value ([5]; mutant R155K + M28T + Y448H)?
Its value is 0.3 fold.

And the “fold change in EC50 vs wild-type GT1a” value ([5]; mutant R155K + Q30H + Y448H)?
The value was 0.5 fold.

What about the “fold change in EC50 vs wild-type GT1a” value ([5]; mutant R155K + Q30R) of the same compound?
Its value is 1.5 fold.

What about the “fold change in EC50 vs wild-type GT1a” value ([5]; mutant R155K + Y93H) of the same compound?
Its value is 0.6 fold.

What about the “fold change in EC50 vs wild-type GT1a” value ([5]; mutant R155K + Y488H (first line, r20)) of the same compound?
Its value is 1.0 fold.

And the “fold change in EC50 vs wild-type GT1a” value ([5]; mutant R155K + Y488H (second line, r26))?
The value was 0.6 fold.

And the “fold change in EC50 vs wild-type GT1a” value ([5]; mutant R155M)?
Its value is 0.7 fold.

What about the “fold change in EC50 vs wild-type GT1a” value ([5]; mutant R155S) of the same compound?
The value was 0.5 fold.

And the “fold change in EC50 vs wild-type GT1a” value ([5]; mutant R155T)?
Its value is 0.6 fold.

What about the “fold change in EC50 vs wild-type GT1a” value ([5]; mutant R155W) of the same compound?
The value was 1.0 fold.

What about the “fold change in EC50 vs wild-type GT1a” value ([5]; mutant R155k + Q30H) of the same compound?
The value was 0.6 fold.

What about the “fold change in EC50 vs wild-type GT1b” value ([6]; mutant A156D) of the same compound?
Its value is 0.8 fold.

And the “fold change in EC50 vs wild-type GT1b” value ([6]; mutant A156G)?
The value was 0.8 fold.

What about the “fold change in EC50 vs wild-type GT1b” value ([6]; mutant A156T) of the same compound?
The value was 0.7 fold.

What about the “fold change in EC50 vs wild-type GT1b” value ([6]; mutant A156V) of the same compound?
Its value is 0.8 fold.

And the “fold change in EC50 vs wild-type GT1b” value ([6]; mutant D168A)?
The value was 0.9 fold.

And the “fold change in EC50 vs wild-type GT1b” value ([6]; mutant D168E)?
Its value is 0.9 fold.

And the “fold change in EC50 vs wild-type GT1b” value ([6]; mutant D168E + L31V + Y448H)?
The value was 0.8 fold.

And the “fold change in EC50 vs wild-type GT1b” value ([6]; mutant D168E + Y93H + Y448H)?
Its value is 0.5 fold.

What about the “fold change in EC50 vs wild-type GT1b” value ([6]; mutant D168E + Y448H) of the same compound?
Its value is 0.4 fold.

What about the “fold change in EC50 vs wild-type GT1b” value ([6]; mutant D168G) of the same compound?
The value was 0.8 fold.

What about the “fold change in EC50 vs wild-type GT1b” value ([6]; mutant D168H) of the same compound?
Its value is 1.0 fold.

What about the “fold change in EC50 vs wild-type GT1b” value ([6]; mutant D168H + C445F) of the same compound?
Its value is 0.4 fold.

And the “fold change in EC50 vs wild-type GT1b” value ([6]; mutant D168L + C445F)?
Its value is 0.2 fold.

And the “fold change in EC50 vs wild-type GT1b” value ([6]; mutant D168N)?
Its value is 1.1 fold.

What about the “fold change in EC50 vs wild-type GT1b” value ([6]; mutant D168T) of the same compound?
Its value is 1.0 fold.

What about the “fold change in EC50 vs wild-type GT1b” value ([6]; mutant D168V) of the same compound?
The value was 1.3 fold.

What about the “fold change in EC50 vs wild-type GT1b” value ([6]; mutant D168V + C445F) of the same compound?
The value was 0.3 fold.

And the “fold change in EC50 vs wild-type GT1b” value ([6]; mutant D168V + L31V + Y448H)?
Its value is 0.6 fold.

What about the “fold change in EC50 vs wild-type GT1b” value ([6]; mutant D168V + Y93H + Y448H) of the same compound?
Its value is 0.6 fold.

What about the “fold change in EC50 vs wild-type GT1b” value ([6]; mutant D168V + Y448H) of the same compound?
Its value is 0.5 fold.

What about the “fold change in EC50 vs wild-type GT1b” value ([6]; mutant D168Y) of the same compound?
Its value is 1.1 fold.

And the “fold change in EC50 vs wild-type GT1b” value ([6]; mutant L31V + D168E)?
The value was 1.3 fold.

And the “fold change in EC50 vs wild-type GT1b” value ([6]; mutant L31V + D168V)?
Its value is 1.1 fold.

What about the “fold change in EC50 vs wild-type GT1b” value ([6]; mutant R155C) of the same compound?
The value was 0.6 fold.

What about the “fold change in EC50 vs wild-type GT1b” value ([6]; mutant R155G) of the same compound?
Its value is 0.8 fold.

And the “fold change in EC50 vs wild-type GT1b” value ([6]; mutant R155K)?
Its value is 1.2 fold.

And the “fold change in EC50 vs wild-type GT1b” value ([6]; mutant R155L)?
Its value is 0.8 fold.

And the “fold change in EC50 vs wild-type GT1b” value ([6]; mutant R155Q)?
Its value is 0.6 fold.

And the “fold change in EC50 vs wild-type GT1b” value ([6]; mutant R155W)?
Its value is 0.5 fold.

And the “fold change in EC50 vs wild-type GT1b” value ([6]; mutant Y93H + D168E)?
The value was 1.0 fold.

And the “fold change in EC50 vs wild-type GT1b” value ([6]; mutant Y93H + D168V)?
The value was 0.5 fold.

What about the susceptibility of mutants [7] of the same compound?
Its susceptibility of mutants is “susceptible”.

What about the “Antagonism Volume (cytotoxicity)” value [3] of the same compound?
The value was −10 ± 7 nM^2%.

What about the “Interaction (cytotoxicity)” value [3] of the same compound?
The value was “Additivity (Additivity: ≦25 and >−25 nM^2%)”.

And the “Synergy Volume (cytotoxicity)” value [3]?
Its value is 15 ± 8 nM^2%.

What about the “Antagonism Volume” value (HCV genotype 1a replicon [4]) of the same compound?
The value was −1 ± 3 nM^2%.

And the “Synergy Volume” value (HCV genotype 1a replicon [4])?
Its value is 26 ± 28 nM^2%.
